One series concerns male Swiss mice. Put plainly: Hot plate test in mice. Format: in vivo. The following applies: hot plate 55° C., Cizolirtine (as Citrate salt) 20 mg/kg i.p., Morphine 5 mg/kg s.c., combination 20 + 5 mg/kg; for % Analgesic activity 0.5 hours: 0.5 hours after administration; for % Analgesic activity 1 hour: 1 hour after administration; for % Analgesic activity 2 hours: 2 hours after administration. The protocol: The analgesic activity of the inventive active substance combination is determined in male Swiss mice (weight 20-25 g, Harlan Iberica, S. Feliu de Codinas, Barcelona, Spain) as described in the publication of G. Woolfe and A. D. MacDonald, J. Pharm. Exp. Ther. 1944, 80, pages 300-307. The respective description of this publication is incorporated by reference and forms part of the present disclosure.
According to this test the mice are put onto a plate, which is heated to 55° C. and the time is determined until the mice show signs of pain such as vigorous and repeated licking of the paws, jumping or pulling back the paws. The mice are kept on the hot plate for no longer than 40 seconds in order to avoid the development of cutaneous lesions. At first the untreated mice are subjected to the hot-plate test to determine a baseline for their pain induced behaviour. After 10 minutes the vehicle, the active substances and the inventive active substance combination to be tested are administered to different groups of mice. 0.5 hours, 1 hour and 2 hours after the administration the animals are put onto the hot plate and the time is measured until they show signs of pain. The analgesic efficacy of the active substances or active substance combination is calculated on the basis of the values obtained for the comparison group of mice which is only administered the vehicle.
In general terms: Hot-plate and tail-flick tests time the reaction to a heat stimulus.

The next series has as its system male Swiss albino mice. The procedure:
Pharmacodyn. 1971, 190, pages 213-218 in male Swiss albino mice (weight 20-25 g, Harlan Iberica, S. Feliu de Codinas, Barcelona, Spain).
Opioid dependency is developed in the mice by intraperitoneal administration of the opioid in a suitable dose known to those skilled in the art, e.g. 5 mg/kg/day for 4 consecutive days for morphine. Withdrawal symptoms are then induced by the intravenous administration of a suitable opioid antagonist in a dose known to those skilled in the art, for example, 2 mg/kg naloxone in case of morphine, 30 minutes after the administration of the final dose of the opioid is completed.
In the 30 minute period following the naloxone administration the mice show typical withdrawal symptoms, namely jumps and shakes (of the wet dog shake type), which are counted and registered.
The active substance combination is also administered to the mice for 4 consecutive days. After the administration of 2 mg/kg naloxone 30 minutes after the administration of the final dose of the active substance combination has been completed, the mice are closely watched for withdrawal symptoms, namely jumps and shakes (of the wet dog shake type), which are then counted and registered.
The influence of the active substance combination on withdrawal symptoms has been determined as described above.

Where [1] appears, read: 30 minute period after 2 mg/kg naloxone, Morphine 5 mg/kg/day s.c. over 4 days, alone or with Cizolirtine citrate 40 mg/kg/day i.p.

As for `CN(C)CCOC(c1ccccc1)c1ccnn1C.O=C(O)CC(O)(CC(=O)O)C(=O)O` (racemic) [Cizolirtine, (±)-5-[α-[2-(Dimethylamino)ethoxy]benzyl]-1-methyl-1H-pyrazole citrate], in the series on male Swiss mice, the “% Analgesic activity 0.5 hours” value amounted to 25.8%, the “% Analgesic activity 1 hour” value is reported as 17.1% and the “% Analgesic activity 2 hours” value stood at 23.4%. Besides, the “withdrawal symptoms associated with morphine on co-administration (in words)” value in the series with male Swiss albino mice (table B, co-administered with morphine, opioid amount not reduced) was “significantly reduced”.

For the compound `CN1CC[C@]23c4c5ccc(O)c4O[C@H]2[C@@H](O)C=C[C@H]3[C@H]1C5` [Morphine], in the series with male Swiss mice, the “% Analgesic activity 0.5 hours” value was 48.6%, the “% Analgesic activity 1 hour” value was found to be 34.8% and the “% Analgesic activity 2 hours” value is on record as 15.8%. In the series on male Swiss albino mice (setting [1]), the Number of jumps stood at 6.6 and the Number of shakes stood at 16.3.
